Measurements: ChEMBL document CHEMBL1201862, “PubChem BioAssay data set” (2004)
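These data come from cells grown in 96-well plates and exposed to compound for 48 hours at five concentrations. GI50 marks 50% less growth.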 Calls of active or inactive are those of the source. Cut-off read from the data, not from the text of the source: active = GI50 up to about 1.1 µM and inactive = higher.

Columns and labels:
Test in all cases: inhibition of tumour cell growth, NCI panel, 48 h
[1] = tested on: A498
[2] = tested on: ACHN
[3] = tested on: CAKI-1
[4] = tested on: HCT-116
[5] = tested on: HCT-15
[6] = tested on: HOP-62
[7] = tested on: HT-29
[8] = tested on: K562
[9] = tested on: M14
[10] = tested on: MOLT-4
[11] = tested on: Malme-3M
[12] = tested on: NCI-H522
[13] = tested on: OVCAR-4
[14] = tested on: OVCAR-5
[15] = tested on: OVCAR-8
[16] = tested on: RXF 393
[17] = tested on: SK-MEL-5
[18] = tested on: SNB-75
[19] = tested on: SW-620
[20] = tested on: UO-31

| Structure (SMILES) | GI50 [1] | GI50 [2] | GI50 [3] | GI50 [4] | GI50 [5] | GI50 [6] | GI50 [7] | GI50 [8] | GI50 [9] | GI50 [10] | GI50 [11] | GI50 [12] | GI50 [13] | GI50 [14] | GI50 [15] | GI50 [16] | GI50 [17] | GI50 [18] | GI50 [19] | GI50 [20] |
| --- | --- | --- | --- | --- | --- | --- | --- | --- | --- | --- | --- | --- | --- | --- | --- | --- | --- | --- | --- | --- |
| CCCCn1c2c(n(CCCC)c1=S)-c1c(n(CCCC)c(=S)n1CCCC)SSc1c(n(CCCC)c(=S)n1CCCC)-c1c(n(CCCC)c(=S)n1CCCC)SSc1c(n(CCCC)c(=S)n1CCCC)-c1c(n(CCCC)c(=S)n1CCCC)SS2 | > 50 µM (inactive) | 2.36 µM (inactive) | 10.2 µM (inactive) | 4.72 µM (inactive) | 7.64 µM | 15.2 µM (inactive) | 11.6 µM (inactive) | 2.03 µM (inactive) | 13.4 µM (inactive) | 2.32 µM (inactive) | 1.57 µM (inactive) | 0.78 µM (active) | 1.73 µM (inactive) | 9.12 µM (inactive) | 1.77 µM (inactive) | 2.72 µM (inactive) | 12 µM (inactive) | 10.1 µM (inactive) | 1.69 µM (inactive) | 6.47 µM (inactive) |
| CC1=NN(c2ccccc2)C(=O)C1C(=O)C(=O)Nc1ccc(C)cc1C (stereo not given) | > 100 µM (inactive) | > 100 µM (inactive) | > 100 µM (inactive) | > 100 µM (inactive) | > 100 µM | > 100 µM (inactive) | > 100 µM (inactive) | > 100 µM (inactive) | > 100 µM (inactive) | > 100 µM (inactive) | > 100 µM (inactive) | > 100 µM (inactive) | > 100 µM (inactive) | > 100 µM (inactive) | > 100 µM (inactive) | > 100 µM (inactive) | > 100 µM (inactive) | > 100 µM (inactive) | > 100 µM (inactive) | > 100 µM (inactive) |
| O=C(Nc1ccn(C2CCC(COC(c3ccccc3)(c3ccccc3)c3ccccc3)O2)c(=O)n1)c1ccccc1 (stereo not given) | 5 µM (inactive) | 3.8 µM (inactive) | 4.51 µM (inactive) | 3.33 µM (inactive) | 4.18 µM | 10.7 µM (inactive) | 2.4 µM (inactive) | 2.86 µM (inactive) | 3.48 µM (inactive) | 2.56 µM (inactive) | 3.18 µM (inactive) | 5.32 µM (inactive) | 2.82 µM (inactive) | 3.76 µM (inactive) | 4.82 µM (inactive) | 2.9 µM (inactive) | 2.78 µM (inactive) | 2.39 µM (inactive) | 4.94 µM (inactive) | 5.3 µM (inactive) |
| COc1cc(-c2nn3c(=O)n(-c4ccc(Cl)cc4)c(=O)nc3s2)cc(OC)c1OC | > 67 µM (inactive) | 16.3 µM (inactive) | 18.2 µM (inactive) | 33.7 µM (inactive) | > 88.3 µM | 18.4 µM (inactive) | > 100 µM (inactive) | > 31.6 µM (inactive) | 39.2 µM (inactive) | 98.2 µM (inactive) | 65.9 µM (inactive) | > 58.2 µM (inactive) | 41.9 µM (inactive) | > 100 µM (inactive) | > 49.5 µM (inactive) | 8.87 µM (inactive) | > 52.4 µM (inactive) | 8.24 µM (inactive) | > 100 µM (inactive) | > 76.6 µM (inactive) |
| OC(COc1ccccc1)CN1CCCCC1 (stereo not given) | > 100 µM (inactive) | > 100 µM (inactive) | > 100 µM (inactive) | > 100 µM (inactive) | > 100 µM | > 100 µM (inactive) | > 100 µM (inactive) | > 100 µM (inactive) | > 100 µM (inactive) | > 100 µM (inactive) | > 100 µM (inactive) | > 100 µM (inactive) | > 100 µM (inactive) | > 100 µM (inactive) | > 100 µM (inactive) | > 100 µM (inactive) | > 100 µM (inactive) | > 100 µM (inactive) | > 100 µM (inactive) | > 100 µM (inactive) |
| N#CC1=C(N)N(c2ccccc2)C(c2ccco2)C1(C#N)C#N (stereo not given) | 21.8 µM (inactive) | 16.7 µM (inactive) | 30.6 µM (inactive) | 28.5 µM (inactive) | 18.3 µM | 21.8 µM (inactive) | 20 µM (inactive) | 6.58 µM (inactive) | 20.6 µM (inactive) | 25.5 µM (inactive) | 22.9 µM (inactive) | 16.7 µM (inactive) | 21.3 µM (inactive) | 22.9 µM (inactive) | 23.3 µM (inactive) | 17.5 µM (inactive) | 17.4 µM (inactive) | 20 µM (inactive) | 17.9 µM (inactive) | 18.7 µM (inactive) |
| CSc1nc2nccnc2c(=O)[nH]1 | > 100 µM (inactive) | > 100 µM (inactive) | > 100 µM (inactive) | > 100 µM (inactive) | > 100 µM | > 100 µM (inactive) | > 100 µM (inactive) | > 100 µM (inactive) | > 100 µM (inactive) | > 100 µM (inactive) | > 100 µM (inactive) | > 100 µM (inactive) | > 100 µM (inactive) | > 100 µM (inactive) | > 100 µM (inactive) | > 100 µM (inactive) | > 100 µM (inactive) | > 100 µM (inactive) | > 100 µM (inactive) | > 100 µM (inactive) |
